Results published in US10582709B2, “Butyrolactones as herbicides” (FMC Corporation, priority 2015, dated 2020).

How the values were obtained:
Format in all cases: in vivo
kochia (Kochia scoparia) [1] = experiment: Test A postemergence, kochia; conditions: visual rating after approx. 10 d, 0 to 100 scale, 0 no effect, 100 complete control
Source text: (§1) Seeds of plant species selected from barnyardgrass (Echinochloa crus-galli), crabgrass (large crabgrass, Digitaria sanguinalis), kochia (Kochia scoparia), ragweed (common ragweed, Ambrosia elatior), morningglory (Ipomoea spp.), velvetleaf (Abutilon theophrasti), ryegrass, Italian (Italian ryegrass, Lolium multiflorum), foxtail, giant (giant foxtail, Setaria faberii), wheat (Triticum aestivum), corn (Zea mays), and pigweed (Amaranthus retroflexus), were planted into a blend of loam soil and sand and treated preemergence with a directed soil spray using test chemicals formulated in a non-phytotoxic solvent mixture which included a surfactant. At the same time, plants selected from these crop and weed species and also blackgrass (Alopecurus myosuroides), and galium (catchweed bedstraw, Galium aparine), were planted in pots containing the same blend of loam soil and sand and treated with postemergence applications of test chemicals formulated in the same manner. Plants ranged in height from 2 to 10 cm and were in the one- to two-leaf stage for the postemergence treatment. Treated plants and untreated controls were maintained in a greenhouse for approximately 10 d, after which time all treated plants were compared to untreated controls and visually evaluated for injury. Plant response ratings, summarized in Table A, are based on a 0 to 100 scale where 0 is no effect and 100 is complete control. A dash (-) response means no test result.

[2] = system: barnyardgrass (Echinochloa crus-galli); experiment: Test B flooded paddy test, barnyardgrass; conditions: applied to paddy water at 2-leaf stage, 13 to 15 d, scale 0 no effect to 100 complete control
Experimental: (§2) Plant species in the flooded paddy test selected from rice (Oryza sativa), sedge, umbrella (small-flower umbrella sedge, Cyperus difformis), ducksalad (Heteranthera limosa), and barnyardgrass (Echinochloa crus-galli) were grown to the 2-leaf stage for testing. At time of treatment, test pots were flooded to 3 cm above the soil surface, treated by application of test compounds directly to the paddy water, and then maintained at that water depth for the duration of the test. Treated plants and controls were maintained in a greenhouse for 13 to 15 d, after which time all species were compared to controls and visually evaluated. Plant response ratings, summarized in Table B, are based on a scale of 0 to 100 where 0 is no effect and 100 is complete control. A dash (-) response means no test result.

[3] = system: foxtail, giant (giant foxtail, Setaria faberii); experiment: Test A preemergence, giant foxtail; conditions: visual rating after approx. 10 d, 0 to 100 scale, 0 no effect, 100 complete control
Source text: as §1

[4] = system: ryegrass, Italian (Italian ryegrass, Lolium multiflorum); experiment: Test A postemergence, Italian ryegrass; conditions: visual rating after approx. 10 d, 0 to 100 scale, 0 no effect, 100 complete control
Source text: as §1

[5] = system: ragweed (common ragweed, Ambrosia elatior); experiment: Test A preemergence, ragweed; conditions: visual rating after approx. 10 d, 0 to 100 scale, 0 no effect, 100 complete control
Source text: as §1

[6] = system: foxtail, giant (giant foxtail, Setaria faberii); experiment: Test A postemergence, giant foxtail; conditions: visual rating after approx. 10 d, 0 to 100 scale, 0 no effect, 100 complete control
Source text: as §1

[7] = system: wheat (Triticum aestivum); experiment: Test A postemergence, wheat; conditions: visual rating after approx. 10 d, 0 to 100 scale, 0 no effect, 100 complete control
Source text: as §1

[8] = system: ducksalad (Heteranthera limosa); experiment: Test B flooded paddy test, ducksalad; conditions: applied to paddy water at 2-leaf stage, 13 to 15 d, scale 0 no effect to 100 complete control
Experimental: as §2

[9] = system: galium (catchweed bedstraw, Galium aparine); experiment: Test A postemergence, galium; conditions: visual rating after approx. 10 d, 0 to 100 scale, 0 no effect, 100 complete control
Source text: as §1

kochia (Kochia scoparia) [10] = experiment: Test A preemergence, kochia; conditions: visual rating after approx. 10 d, 0 to 100 scale, 0 no effect, 100 complete control
Source text: as §1

[11] = system: ryegrass, Italian (Italian ryegrass, Lolium multiflorum); experiment: Test A preemergence, Italian ryegrass; conditions: visual rating after approx. 10 d, 0 to 100 scale, 0 no effect, 100 complete control
Source text: as §1

[12] = system: ragweed (common ragweed, Ambrosia elatior); experiment: Test A postemergence, ragweed; conditions: visual rating after approx. 10 d, 0 to 100 scale, 0 no effect, 100 complete control
Source text: as §1

[13] = system: blackgrass (Alopecurus myosuroides); experiment: Test A postemergence, blackgrass; conditions: visual rating after approx. 10 d, 0 to 100 scale, 0 no effect, 100 complete control
Source text: as §1

[14] = system: pigweed (Amaranthus retroflexus); experiment: Test A postemergence, pigweed; conditions: visual rating after approx. 10 d, 0 to 100 scale, 0 no effect, 100 complete control
Source text: as §1

[15] = system: barnyardgrass (Echinochloa crus-galli); experiment: Test A preemergence, barnyardgrass; conditions: visual rating after approx. 10 d, 0 to 100 scale, 0 no effect, 100 complete control
Source text: as §1

[16] = system: pigweed (Amaranthus retroflexus); experiment: Test A preemergence, pigweed; conditions: visual rating after approx. 10 d, 0 to 100 scale, 0 no effect, 100 complete control
Source text: as §1

[17] = system: barnyardgrass (Echinochloa crus-galli); experiment: Test A postemergence, barnyardgrass; conditions: visual rating after approx. 10 d, 0 to 100 scale, 0 no effect, 100 complete control
Source text: as §1

rice (Oryza sativa) = experiment: Test B flooded paddy test, rice; conditions: applied to paddy water at 2-leaf stage, 13 to 15 d, scale 0 no effect to 100 complete control
Experimental: as §2

corn (Zea mays) = experiment: Test A postemergence, corn; conditions: visual rating after approx. 10 d, 0 to 100 scale, 0 no effect, 100 complete control
Source text: as §1

[18] = system: sedge, umbrella (small-flower umbrella sedge, Cyperus difformis); experiment: Test B flooded paddy test, umbrella sedge; conditions: applied to paddy water at 2-leaf stage, 13 to 15 d, scale 0 no effect to 100 complete control
Experimental: as §2

SMILES	Plant response rating, Kochia (kochia (Kochia scoparia) [1]; 125 g ai/ha)	Plant response rating, Kochia (kochia (Kochia scoparia) [1]; 500 g ai/ha)	Plant response rating, Foxtail, Giant ([3]; 125 g ai/ha)	Plant response rating, Foxtail, Giant ([3]; 500 g ai/ha)	Plant response rating, Ryegrass, Italian ([4]; 125 g ai/ha)	Plant response rating, Ryegrass, Italian ([4]; 500 g ai/ha)	Plant response rating, Ragweed ([5]; 125 g ai/ha)	Plant response rating, Ragweed ([5]; 500 g ai/ha)	Plant response rating, Foxtail, Giant ([6]; 125 g ai/ha)	Plant response rating, Foxtail, Giant ([6]; 500 g ai/ha)	Plant response rating, Wheat ([7]; 125 g ai/ha)	Plant response rating, Wheat ([7]; 500 g ai/ha)	Plant response rating, Galium ([9]; 125 g ai/ha)	Plant response rating, Galium ([9]; 500 g ai/ha)	Plant response rating, Kochia (kochia (Kochia scoparia) [10]; 125 g ai/ha)	Plant response rating, Kochia (kochia (Kochia scoparia) [10]; 500 g ai/ha)	Plant response rating, Ryegrass, Italian ([11]; 125 g ai/ha)	Plant response rating, Ryegrass, Italian ([11]; 500 g ai/ha)	Plant response rating, Ragweed ([12]; 125 g ai/ha)	Plant response rating, Ragweed ([12]; 500 g ai/ha)	also measured
O=C(Nc1ccccc1C(F)(F)F)C1C(=O)OCC1c1ccc(F)c(C(F)(F)F)c1 (racemic) [Compound 17]	0	0	20	60	0	0	0	0	0	20	0	0	0	0	0	0	0	0	0	0	Plant response rating, Flood, Barnyardgrass ([2]; 500 g ai/ha): 0; Plant response rating, Flood, Ducksalad ([8]; 500 g ai/ha): 0; Plant response rating, Blackgrass ([13]; 125 g ai/ha): 0; Plant response rating, Blackgrass ([13]; 500 g ai/ha): 0; Plant response rating, Pigweed ([14]; 125 g ai/ha): 0; Plant response rating, Pigweed ([14]; 500 g ai/ha): 0; Plant response rating, Barnyardgrass ([15]; 125 g ai/ha): 0; Plant response rating, Barnyardgrass ([15]; 500 g ai/ha): 0; Plant response rating, Pigweed ([16]; 125 g ai/ha): 0; Plant response rating, Pigweed ([16]; 500 g ai/ha): 0; Plant response rating, Barnyardgrass ([17]; 125 g ai/ha): 0; Plant response rating, Barnyardgrass ([17]; 500 g ai/ha): 0; Plant response rating, Flood, Rice (rice (Oryza sativa); 500 g ai/ha): 0; Plant response rating, Corn (corn (Zea mays); 125 g ai/ha): 0; Plant response rating, Corn (corn (Zea mays); 500 g ai/ha): 0; Plant response rating, Flood, Sedge, Umbrella ([18]; 500 g ai/ha): 0
O=C(Nc1cccc(F)c1C(F)(F)F)C1C(=O)OCC1c1ccc(F)c(C(F)(F)F)c1 (racemic) [Compound 18]	0	0	0	40	0	0	0	0	0	30	0	0	0	0	0	0	0	0	0	0	Plant response rating, Flood, Barnyardgrass ([2]; 500 g ai/ha): 0; Plant response rating, Flood, Ducksalad ([8]; 500 g ai/ha): 0; Plant response rating, Blackgrass ([13]; 125 g ai/ha): 0; Plant response rating, Blackgrass ([13]; 500 g ai/ha): 0; Plant response rating, Pigweed ([14]; 125 g ai/ha): 0; Plant response rating, Pigweed ([14]; 500 g ai/ha): 0; Plant response rating, Barnyardgrass ([15]; 125 g ai/ha): 0; Plant response rating, Barnyardgrass ([15]; 500 g ai/ha): 0; Plant response rating, Pigweed ([16]; 125 g ai/ha): 0; Plant response rating, Pigweed ([16]; 500 g ai/ha): 0; Plant response rating, Barnyardgrass ([17]; 125 g ai/ha): 0; Plant response rating, Barnyardgrass ([17]; 500 g ai/ha): 0; Plant response rating, Flood, Rice (rice (Oryza sativa); 500 g ai/ha): 0; Plant response rating, Corn (corn (Zea mays); 125 g ai/ha): 0; Plant response rating, Corn (corn (Zea mays); 500 g ai/ha): 0; Plant response rating, Flood, Sedge, Umbrella ([18]; 500 g ai/ha): 0
O=C(Nc1ccccc1C(F)(F)F)C1C(=O)OCC1c1ccc(C(F)(F)F)cc1 (racemic) [Compound 9]	0	0	30	80	0	0	0	0	30	70	0	0	0	0	0	20	0	20	0	0	Plant response rating, Flood, Barnyardgrass ([2]; 250 g ai/ha): 0; Plant response rating, Flood, Barnyardgrass ([2]; 1000 g ai/ha): 0; Plant response rating, Flood, Ducksalad ([8]; 250 g ai/ha): 30; Plant response rating, Flood, Ducksalad ([8]; 1000 g ai/ha): 30; Plant response rating, Blackgrass ([13]; 125 g ai/ha): 0; Plant response rating, Blackgrass ([13]; 500 g ai/ha): 0; Plant response rating, Pigweed ([14]; 125 g ai/ha): 0; Plant response rating, Pigweed ([14]; 500 g ai/ha): 0; Plant response rating, Barnyardgrass ([15]; 125 g ai/ha): 0; Plant response rating, Barnyardgrass ([15]; 500 g ai/ha): 0; Plant response rating, Pigweed ([16]; 125 g ai/ha): 0; Plant response rating, Pigweed ([16]; 500 g ai/ha): 0; Plant response rating, Barnyardgrass ([17]; 125 g ai/ha): 0; Plant response rating, Barnyardgrass ([17]; 500 g ai/ha): 0; Plant response rating, Flood, Rice (rice (Oryza sativa); 250 g ai/ha): 0; Plant response rating, Flood, Rice (rice (Oryza sativa); 1000 g ai/ha): 0; Plant response rating, Corn (corn (Zea mays); 125 g ai/ha): 0; Plant response rating, Corn (corn (Zea mays); 500 g ai/ha): 0; Plant response rating, Flood, Sedge, Umbrella ([18]; 250 g ai/ha): 0; Plant response rating, Flood, Sedge, Umbrella ([18]; 1000 g ai/ha): 0
